Data: article PMC5310970 (Journal of photochemistry and photobiology. B, Biology, 2016)

Molecular target: Prostate-specific membrane antigen (PSMA) (Homo sapiens, UniProt Q04609)
Assay: fluorescence-based NAALADase inhibition assay
Type: biochemical

Sequence of Prostate-specific membrane antigen (PSMA) (Q04609 whole entry): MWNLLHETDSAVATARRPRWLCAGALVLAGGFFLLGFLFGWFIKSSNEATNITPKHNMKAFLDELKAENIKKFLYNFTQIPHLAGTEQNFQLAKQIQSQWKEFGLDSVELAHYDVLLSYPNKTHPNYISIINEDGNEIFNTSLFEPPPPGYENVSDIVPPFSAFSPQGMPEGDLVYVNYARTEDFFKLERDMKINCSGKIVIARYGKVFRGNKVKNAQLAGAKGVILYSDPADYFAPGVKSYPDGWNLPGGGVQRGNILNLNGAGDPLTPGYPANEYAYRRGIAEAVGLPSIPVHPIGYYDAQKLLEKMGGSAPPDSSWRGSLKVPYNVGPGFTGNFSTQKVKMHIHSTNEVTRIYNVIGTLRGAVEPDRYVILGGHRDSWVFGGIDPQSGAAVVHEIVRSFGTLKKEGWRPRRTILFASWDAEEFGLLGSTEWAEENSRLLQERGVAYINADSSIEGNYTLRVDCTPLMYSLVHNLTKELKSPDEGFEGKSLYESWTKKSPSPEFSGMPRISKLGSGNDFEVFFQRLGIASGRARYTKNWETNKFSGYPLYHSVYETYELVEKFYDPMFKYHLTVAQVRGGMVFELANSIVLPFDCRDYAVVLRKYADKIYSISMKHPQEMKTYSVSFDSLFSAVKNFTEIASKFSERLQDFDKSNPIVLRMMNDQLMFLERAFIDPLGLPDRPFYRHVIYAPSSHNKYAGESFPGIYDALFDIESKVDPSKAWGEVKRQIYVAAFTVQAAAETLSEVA

Substance: YC-9
- Ki: 0.2 nM
